Here are results for four molecules from doi:10.1101/2025.07.01.658226v1 (biorxiv, 2025).

The structures appear in SMILES notation.

What is called Kd is the constant that tells how readily two partners part at equilibrium.

The experiment concerns the target T1, SyHR (Synechocystis sp. PCC 7509, UniProt A0A9X9ZA75).
T1 sequence (A0A9X9ZA75 1-234): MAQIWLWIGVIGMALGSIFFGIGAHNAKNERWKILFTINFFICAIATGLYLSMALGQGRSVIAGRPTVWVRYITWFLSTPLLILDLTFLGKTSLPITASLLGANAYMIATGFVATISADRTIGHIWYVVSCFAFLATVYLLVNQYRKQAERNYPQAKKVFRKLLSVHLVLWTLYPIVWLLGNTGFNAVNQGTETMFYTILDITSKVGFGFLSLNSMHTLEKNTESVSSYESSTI
Description: absorption spectral shift titration, Hill fit. The format is binding.
On to `Cl` [a, Cl^−], for which the Kd amounted to 280 ± 50 µM. With `Br` [b, Br^−] the figure was 110 ± 20 µM. With `O=[N+]([O-])O` [c, NO3^−] the figure was 6150 ± 750 µM; with `I` [d, I^−], 210 ± 30 µM.
